According to patent US20100041892A1, “Therapeutic agent for diabetes” (priority 2005, published 2010):

Tests used:
[1] = biological target: T1, PPARγ-RXRα heterodimer (Homo sapiens, UniProt P37231); experiment: PPARγ-RXRα heterodimer ligand activity (luciferase reporter, PPARγ:RXRα:4ERPP/CHO-K1 cells); type: cell-based; conditions: concentration showing 50% of the maximum luciferase induction rate; CHO-K1 reporter cells, one day incubation
T1 construct: expressed in transfected cells; host or cells: CHO-K1 (PPARγ:RXRα:4ERPP/CHO-K1)
T1 sequence (P37231 1-477 isoform P37231-2): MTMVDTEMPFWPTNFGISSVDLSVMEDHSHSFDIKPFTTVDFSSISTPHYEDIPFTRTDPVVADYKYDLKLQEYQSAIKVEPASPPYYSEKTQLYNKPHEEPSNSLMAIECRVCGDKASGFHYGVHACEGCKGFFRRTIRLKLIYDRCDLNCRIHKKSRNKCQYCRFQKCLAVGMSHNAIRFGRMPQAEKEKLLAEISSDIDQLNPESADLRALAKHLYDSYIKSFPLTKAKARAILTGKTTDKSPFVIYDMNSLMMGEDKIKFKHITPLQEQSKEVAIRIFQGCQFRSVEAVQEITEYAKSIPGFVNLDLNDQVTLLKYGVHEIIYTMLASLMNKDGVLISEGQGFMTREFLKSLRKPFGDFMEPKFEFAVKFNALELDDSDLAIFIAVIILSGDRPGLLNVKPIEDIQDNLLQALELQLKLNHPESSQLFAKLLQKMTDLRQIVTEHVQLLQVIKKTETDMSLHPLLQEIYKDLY
T1 sequence (P19793 1-462 partner): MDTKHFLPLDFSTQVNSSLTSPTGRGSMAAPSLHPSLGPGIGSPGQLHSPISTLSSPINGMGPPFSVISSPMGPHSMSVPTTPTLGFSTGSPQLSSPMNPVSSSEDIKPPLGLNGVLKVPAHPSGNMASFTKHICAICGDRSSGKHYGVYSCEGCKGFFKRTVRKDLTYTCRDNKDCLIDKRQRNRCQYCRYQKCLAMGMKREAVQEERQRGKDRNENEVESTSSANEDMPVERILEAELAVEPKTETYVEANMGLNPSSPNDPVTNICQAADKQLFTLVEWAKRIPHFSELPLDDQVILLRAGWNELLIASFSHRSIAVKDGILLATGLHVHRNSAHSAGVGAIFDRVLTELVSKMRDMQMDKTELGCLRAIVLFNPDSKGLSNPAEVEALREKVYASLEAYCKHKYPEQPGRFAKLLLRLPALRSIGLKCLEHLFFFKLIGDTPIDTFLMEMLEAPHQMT
Protocol: The PPARγ:RXRα:4ERPP/CHO-K1 cells described in WO03/099793 were cultured in a Ham F12 medium [manufactured by Life Technologies, Inc., US] containing 10% calf fetal serum [manufactured by Life Technologies, Inc., US], sown in a 96-well white plate (manufactured by Corning Coster Corporation, US] at 1×10^4 cells/well, and incubated overnight in a carbon dioxide gas incubator at 37° C.
Then, the medium was removed from the 96 well white plate, 45 μl of Ham F12-medium containing 0.1% fatty acid-free bovine serum albumin (BSA) and a test compound (5 μl) were added, and the cells were incubated for one day in a carbon dioxide gas incubator at 37° C. The medium was removed, 20 μl of PicaGene 7.5 (manufactured by Wako Pure Chemical Industries, Ltd.) 2-fold diluted with HBSS (HANKS' BALANCED SALT SOLUTION) [manufactured by BIO WHITTAKER, US] was added. After stirring, the luciferase activity was determined using the 1420 ARVO Multilabel Counter [manufactured by PerkinElmer, US].
The induction rate was calculated from the luciferase activity of each test compound based on the luciferase activity of the test compound non-administration group as 1. The test compound concentration and the induction rate were analyzed by PRISM [manufactured by GraphPad Software, Inc., US] to calculate EC50 value (compound concentration showing 50% of the maximum value of induction rate) of the test compound.

Structure (SMILES)	EC50 [1]	melting point
CCCCCS(=O)(=O)NC(=O)/C(C)=C/c1ccc(OCCCOC)cc1Oc1ncc(Cl)cc1Cl [Example 190, (2E)-3-[2-[(3,5-dichloropyridin-2-yl)oxy]-4-(3-methoxypropoxy)phenyl]-2-methyl-N-(pentylsulfonyl)acrylamide]	15 nM	116 to 116.8 °C
CCCCCS(=O)(=O)NC(=O)/C=C/c1ccc(OCCCOC)cc1Oc1ncc(C(F)(F)F)cc1Cl [Example 251, (2E)-3-[2-{[3-chloro-5-(trifluoromethyl)pyridin-2-yl]oxy}-4-(3-methoxypropoxy)phenyl]-N-(pentylsulfonyl)acrylamide]	7.4 nM	
CCCCCS(=O)(=O)NC(=O)/C=C/c1ccc(OCCOCCOC)cc1Oc1ncc(C(F)(F)F)cc1Cl [Example 256, (2E)-3-{2-{[3-chloro-5-(trifluoromethyl)pyridin-2-yl]oxy}-4-[2-(2-methoxyethoxy)ethoxy]phenyl}-N-(pentylsulfonyl)acrylamide]	13 nM	81 to 83 °C
CCCCCS(=O)(=O)NC(=O)CCc1ccc(OCCCOC)cc1Oc1ncc(C(F)(F)F)cc1Cl [Example 258, 3-[2-{[3-chloro-5-(trifluoromethyl)pyridin-2-yl]oxy}-4-(3-methoxypropoxy)phenyl]-N-(pentylsulfonyl)propanamide]	1.1 nM	115 to 115.2 °C
CCCCCS(=O)(=O)NC(=O)CCc1ccc(OCCCOCCOC)cc1Oc1ncc(C(F)(F)F)cc1Cl [Example 255, 3-{2-{[3-chloro-5-(trifluoromethyl)pyridin-2-yl]oxy}-4-[3-(2-methoxyethoxy)propoxy]phenyl}-N-(pentylsulfonyl)propanamide]	3.9 nM	95 to 95.8 °C
C/C(=C\c1ccc(OC(C)C)cc1Oc1ncc(C(F)(F)F)cc1Cl)C(=O)NS(=O)(=O)NC1CCC(C)CC1 (stereo not shown) [Example 223, (2E)-3-(2-{[3-chloro-5-(trifluoromethyl)pyridin-2-yl]oxy}-4-isopropoxyphenyl)-2-methyl-N-{[(4-methylcyclohexyl)amino]sulfonyl}acrylamide]	55 nM	176.8 to 177.2 °C
COCCOc1ccc(CCCOC(=O)NS(=O)(=O)c2ccc(Cl)cc2)c(Oc2ncc(C(F)(F)F)cc2Cl)c1 [Example 32, 3-[2-{[3-chloro-5-(trifluoromethyl)pyridin-2-yl]oxy}-4-(2-methoxyethoxy)phenyl]propyl [(4 chlorophenyl)sulfonyl]carbamate]	6.6 nM	147 to 150 °C
CCCCCS(=O)(=O)NC(=O)/C=C/c1cc(OC(C)C)nn1Cc1ncc(C(F)(F)F)cc1Cl [Example 199, (2E)-3-(1-{[3-chloro-5-(trifluoromethyl)pyridin-2-yl]methyl}-3-isopropoxy-1H-pyrazol-5-yl)-N-(pentylsulfonyl)acrylamide]	13 nM	
COCCOc1ccc(CCCOC(=O)NS(=O)(=O)NCCc2ccccn2)c(Oc2ncc(Cl)cc2Cl)c1 [Example 427, 3-[2-[(3,5-dichloropyridin-2-yl)oxy]-4-(2-methoxyethoxy)phenyl]propyl {[(2-pyridin-2-ylethyl)amino]sulfonyl}carbamate]	22 nM	
CCCCCS(=O)(=O)NC(=O)/C=C/c1ccc(OC(C)C)cc1Oc1ncc(C(F)(F)F)cc1Cl [Example 13, (2E)-3-[2-{[3-chloro-5-(trifluoromethyl)pyridin-2-yl]oxy}-4-isopropoxyphenyl]-N-(pentylsulfonyl)acrylamide]	26 nM	
CCCCCS(=O)(=O)NC(=O)/C=C/c1cc(OC(C)C)nn1Cc1ccc(C(F)(F)F)cc1Cl [Example 111, (2E)-3-{1-[2-chloro-4-(trifluoromethyl)benzyl]-3-isopropoxy-1H-pyrazol-5-yl}-N-(pentylsulfonyl)acrylamide]	9.3 nM	
CCCCCS(=O)(=O)NC(=O)/C=C/c1ccc(OCCCC#N)cc1Oc1ncc(C(F)(F)F)cc1Cl [Example 451, (2E)-3-[2-{[3-chloro-5-(trifluoromethyl)pyridin-2-yl]oxy}-4-(3-cyanopropoxy)phenyl]-N-(pentylsulfonyl)acrylamide]	15 nM	
CCCCCNS(=O)(=O)NC(=O)/C(C)=C/c1ccc(OCCOC)cc1Oc1ncc(C(F)(F)F)cc1Cl [Example 226, (2E)-3-[2-{[3-chloro-5-(trifluoromethyl)pyridin-2-yl]oxy}-4-(2-methoxyethoxy)phenyl]-2-methyl-N-[(pentylamino)sulfonyl]acrylamide]	8.5 nM	152.5 to 153 °C
CCCCCS(=O)(=O)NC(=O)/C=C/c1ccc(OCCC2(C)OCCO2)cc1Oc1ncc(C(F)(F)F)cc1Cl [Example 453, (2E)-3-{2-{[3-chloro-5-(trifluoromethyl)pyridin-2-yl]oxy}-4-[2-(2-methyl-1,3-dioxolan-2-yl)ethoxy]phenyl}-N-(pentylsulfonyl)acrylamide]	7.3 nM	90 to 92 °C
C/C(=C\c1ccc(OC(C)C)cc1Oc1ncc(C(F)(F)F)cc1Cl)C(=O)NS(=O)(=O)NCCc1cccs1 [Example 225, (2E)-3-(2-{[3-chloro-5-(trifluoromethyl)pyridin-2-yl]oxy}-4-isopropoxyphenyl)-2-methyl-N-({[2-(2-thienyl)ethyl]amino}sulfonyl)acrylamide]	16 nM	130 to 131 °C
CCCCCNS(=O)(=O)NC(=O)/C(C)=C/c1ccc(OC(C)C)cc1Oc1ncc(C(F)(F)F)cc1Cl [Example 224, (2E)-3-(2-{[3-chloro-5-(trifluoromethyl)pyridin-2-yl]oxy}-4-isopropoxyphenyl)-2-methyl-N-[(pentylamino)sulfonyl]acrylamide]	16 nM	137.8 to 138.5 °C
CCCCCS(=O)(=O)NC(=O)CCc1ccc(OCCOCCOC)cc1Oc1ncc(C(F)(F)F)cc1Cl [Example 257, 3-{2-{[3-chloro-5-(trifluoromethyl)pyridin-2-yl]oxy}-4-[2-(2-methoxyethoxy)ethoxy]phenyl}-N-(pentylsulfonyl)propanamide]	2.1 nM	76 to 77.5 °C
CCCCCS(=O)(=O)NC(=O)CCc1ccc(OCC(=O)N(CC)CC)cc1Oc1ncc(C(F)(F)F)cc1Cl [Example 44, 3-{2-{[3-chloro-5-(trifluoromethyl)pyridin-2-yl]oxy}-4-[2-(diethylamino)-2-oxoethoxy]phenyl}-N-(pentylsulfonyl)propanamide]	6.9 nM	
CCCCCS(=O)(=O)NC(=O)/C=C/c1ccc(OCCC(C)(C)O)cc1Oc1ncc(C(F)(F)F)cc1Cl [Example 248, (2E)-3-[2-{[3-chloro-5-(trifluoromethyl)pyridin-2-yl]oxy}-4-(3-hydroxy-3-methylbutoxy)phenyl]-N-(pentylsulfonyl)acrylamide]	18 nM	135.5 to 136 °C
CCCCCS(=O)(=O)NC(=O)CCc1ccc(OCCOC)cc1OCc1nc(-c2ccccc2)oc1C [Example 173, 3-{4-(2-methoxyethoxy)-2-[(5-methyl-2-phenyl-1,3-oxazol-4-yl)methoxy]phenyl}-N-(pentylsulfonyl)propanamide]	9.8 nM	95.9 to 96.7 °C
COCCOc1ccc(CCCOC(=O)NCC2CC2)c(Oc2ncc(C(F)(F)F)cc2Cl)c1 [Example 51, 3-[2-{[3-chloro-5-(trifluoromethyl)pyridin-2-yl]oxy}-4-(2-methoxyethoxy)phenyl]propyl (cyclopropylmethyl)carbamate]	20 nM	87.8 to 87.9 °C
CCCCCS(=O)(=O)NC(=O)OCc1ccc(OS(=O)(=O)CCC)cc1Oc1ncc(C(F)(F)F)cc1Cl [Example 64, 3-{[3-chloro-5-(trifluoromethyl)pyridin-2-yl]oxy}-4-[({[(pentylsulfonyl)amino]carbonyl}oxy)methyl]phenyl propane-1-sulfonate]	8.7 nM	86 to 89 °C
